Data on two molecules can be found in patent US10434094B2, “Combination of checkpoint kinase 1 inhibitors and wee 1 kinase inhibitors” (Array BioPharma Inc., priority 2010, dated 2019).

Where two headings read alike, the source gives them in different places.

The subject of data set [1] is HEL92.1.7 cells. In words: cellular viability by CellTiter Blue assay, single agents and matrix combination. The class given is cell-based. The settings on record: Homo sapiens, HEL 92.1.7, 72 h, single agent, three days of treatment. The procedure: HEL92.1.7 cells were plated in 96-well plates and then treated with Compound 2 or MK-1775 as single agents. After three days of treatment, cellular viability was assessed by CellTiter Blue assay (Promega). Data represent the mean±S.E. (n=5 for Compound 2, n=2 for MK-1775). […] HEL92.1.7 cells were plated in 96-well plates and then treated with combinations of Compound 2 and MK-1775 in matrix fashion at the indicated concentrations. Three days after treatment cellular viability was assessed by CellTiter Blue assay. […] Data represent the average of two independent experiments (triplicate plates were averaged for each individual experiment).

The conditions of data set [2]: cited from earlier work.

By IC50 is commonly meant the concentration that inhibits the measured activity by half. Regarding `CC(C)C(=O)Nc1c[nH]c2ncc(Br)c(N3CCC[C@@H](N)C3)c12` [Compound 2, (R)—N-(4-(3-aminopiperidin-1-yl)-5-bromo-1H-pyrrolo [2,3-b]pyridin-3-yl)isobutyramide], the IC50 in data set [1] worked out at 0.03 µM.

Regarding `C=CCn1c(=O)c2cnc(Nc3ccc(N4CCN(C)CC4)cc3)nc2n1-c1cccc(C(C)(C)O)n1` [MK-1775], the IC50 in data set [1] worked out at 0.103 µM. Further, the MTD in data set [2] (multiple dose (5 BID doses) in combination with carboplatin (AUC 5), trial ongoing) was 225 mg; in data set [2] (multiple dose (5 BID doses) in combination with cisplatin (75 mg/m^2), trial ongoing), 125 mg; in data set [2] (multiple dose in combination with gemcitabine (1000 mg/m^2), BID day 1) it was 50 mg; in data set [2] (multiple dose in combination with gemcitabine (1000 mg/m^2), BID day 2) it was 25 mg; in data set [2] (multiple dose in combination with gemcitabine (1000 mg/m^2), QD day 3) it was 25 mg; in data set [2] (single dose in combination with carboplatin (AUC 5), patients with advanced solid tumors), 325 mg. Besides, the MTD was 200 mg in data set [2] (single dose in combination with cisplatin (75 mg/m^2), patients with advanced solid tumors) and 200 mg in data set [2] (single dose in combination with gemcitabine (1000 mg/m^2), patients with advanced solid tumors).
